This assay addresses T1, sigma 1 (h) (Homo sapiens, UniProt Q99720).
T1 construct: incubating Jurkat cell membranes (10-20 mg protein per tube) with [^3H](+) pentazocine; endogenous in cells; host or cells: Jurkat cell membranes
As to the kind of experiment: σ1 binding assay ([3H](+)pentazocine displacement, Jurkat cell membranes). Particulars: [3H](+)pentazocine 15 nM, 37° C., 2 hours; for inhibition at 0.01 µM: compound at 10 nM, read-out: Sigma-1 receptor % inhibition 10 nM; for inhibition at 0.1 µM: compound at 100 nM, read-out: Sigma-1 receptor % inhibition 100 nM. The method, then: The σ1 binding assays were performed according to Ganapathy et al (Ganapathy, M. E. et al. (1999), J. Pharmacol. Exp. Ther., 28:251-260). The σ1 binding assay was carried out by incubating Jurkat cell membranes (10-20 mg protein per tube) with [^3H](+) pentazocine a selective S1R ligand (15 nM) and a range of concentration of tested compounds, at 37° C. for 2 hours in 5 mM tris/HCl buffer (pH=7.4). The inhibition of [3H]-(+)-pentazocine binding assay is mainly used to determine the inhibition constant (Ki) of potential SIR ligands. These assays are performed with a single concentration of [^3H]-(+)-pentazocine at a concentration near its KD and increasing concentrations of non-radioactive ligands.

The structures appear in SMILES notation.

One may read the inhibition as the percentage by which the read-out fell short of the control.

T1 sequence (Q99720 whole entry): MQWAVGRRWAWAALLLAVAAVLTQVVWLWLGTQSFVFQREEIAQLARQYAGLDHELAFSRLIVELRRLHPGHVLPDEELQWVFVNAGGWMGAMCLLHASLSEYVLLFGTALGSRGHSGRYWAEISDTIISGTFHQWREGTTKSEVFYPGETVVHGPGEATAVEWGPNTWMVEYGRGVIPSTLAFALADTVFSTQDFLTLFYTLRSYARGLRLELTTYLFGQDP

With `CN(CCCn1nccc(-c2ccccc2)c1=O)Cc1ccccc1` [9a, 2-(3-(benzyl(methyl)amino)propyl)-4-phenylpyridazin-3(2H)-one], the inhibition at 0.01 µM came to 61.5%.

With `O=c1c(-c2ccccc2)ccnn1CCCN1CCCCCC1` [9b, 2-(3-(azepan-1-yl)propyl)-4-phenylpyridazin-3(2H)-one], the inhibition at 0.01 µM was 47.4%.

As to `O=c1c(-c2ccccc2)ccnn1CCCN1CCOCC1` [9c, 2-[3-(morpholin-4-yl)propyl]-4-phenyl-2,3-dihydropyridazin-3-one], the inhibition at 0.01 µM was 7.6%.

As for `CN(CCCCn1nccc(-c2ccccc2)c1=O)Cc1ccccc1` [10a, 2-(4-(benzyl(methyl)amino)butyl)-4-phenylpyridazin-3(2H)-one], the inhibition at 0.01 µM is 87.5%.

`O=c1c(-c2ccccc2)ccnn1CCCCN1CCOCC1` [10b, 2-(4-morpholinobutyl)-4-phenylpyridazin-3(2H)-one]: the inhibition at 0.01 µM was determined as 14.5%.

With `O=c1c(-c2ccccc2)ccnn1CCCCN1CCCOCC1` [10c, 2-(4-(1,4-oxazepan-4-yl)butyl)-4-phenylpyridazin-3(2H)-one], the inhibition at 0.01 µM amounted to 40.3% and the inhibition at 0.1 µM worked out at 80.3%.

In the case of `O=c1c(-c2ccccc2)ccnn1CCCCN1CCCCC1` [10d, 4-phenyl-2-(4-(piperidin-1-yl)butyl)pyridazin-3(2H)-one], the inhibition at 0.01 µM turned out to be 28.3%.

`O=c1c(-c2ccccc2)ccnn1CCCCN1CCCCCC1` [10e, 2-(4-(azepan-1-yl)butyl)-4-phenylpyridazin-3(2H)-one]: the inhibition at 0.01 µM was 30.2%.

As for `O=c1c(-c2ccccc2)ccnn1CCCCN1CCCCCCC1` [10f, 2-(4-(azocan-1-yl)butyl)-4-phenylpyridazin-3(2H)-one], the inhibition at 0.01 µM came out at 70%.

For the compound `O=c1c(-c2ccccc2)ccnn1CCCCN1CCc2ccccc2C1` [10g, 2-(4-(3,4-dihydroisoquinolin-2(1H)-yl)butyl)-4-phenylpyridazin-3(2H)-one], the inhibition at 0.01 µM amounted to 73.5%.

Regarding `O=c1c(-c2ccccc2)ccnn1CCCCN1CCc2ccccc2CC1` [10h, 4-phenyl-2-(4-(1,2,4,5-tetrahydro-3H-benzo[d]azepin-3-yl)butyl)pyridazin-3(2H)-one], the inhibition at 0.01 µM was 70.8%.

Regarding `O=c1c(-c2ccccc2)ccnn1CCCCNC12CC3CC(CC(C3)C1)C2` [10i, 2-(4-(adamantan-1-ylamino)butyl)-4-phenylpyridazin-3(2H)-one], the inhibition at 0.01 µM was found to be 37.1%.

With `CN(CCCCn1nccc(-c2ccccc2)c1=O)C12CC3CC(CC(C3)C1)C2` [10j, 2-(4-(adamantan-1-yl(methyl)amino)butyl)-4-phenylpyridazin-3(2H)-one], the inhibition at 0.01 µM worked out at 4.9%.

With `CC1(C)CC2CC(C)(CN2CCCCn2nccc(-c3ccccc3)c2=O)C1` (stereo not drawn) [10k, 4-phenyl-2-(4-(1,3,3-trimethyl-6-azabicyclo[3.2.1]octan-6-yl)butyl)pyridazin-3(2H)-one], the inhibition at 0.01 µM was determined as 3.7%.

For the compound `O=c1c(-c2ccccc2)ccnn1CCCCN(Cc1ccccc1)CC1CCCO1` (stereo not drawn) [10m, 2-(4-(benzyl((tetrahydrofuran-2-yl)methyl)amino)butyl)-4-phenylpyridazin-3(2H)-one], the inhibition at 0.01 µM turned out to be 28.8%.

Consider `COCC(c1ccccc1)N(C)CCCCn1nccc(-c2ccccc2)c1=O` (stereo not drawn) [10o, 2-(4-((2-methoxy-1-phenylethyl)(methyl)amino)butyl)-4-phenylpyridazin-3(2H)-one], for which the inhibition at 0.01 µM was 25.6% and the inhibition at 0.1 µM stood at 68.3%.

Turning to `CN(CCO)CCCCn1nccc(-c2ccccc2)c1=O` [10p, 2-(4-((2-hydroxyethyl)(methyl)amino)butyl)-4-phenylpyridazin-3(2H)-one], the inhibition at 0.1 µM is 9.7%.

For `CN(CCCCn1nccc(-c2ccccc2)c1=O)CC1CCOCC1` [10q, 2-(4-(methyl((tetrahydro-2H-pyran-4-yl)methyl)amino)butyl)-4-phenylpyridazin-3(2H)-one], the inhibition at 0.01 µM came to 29.4% and the inhibition at 0.1 µM was determined as 79.6%.

These data come from patent US12612371B2, “Sigma-1 receptor ligands and therapeutic uses thereof” (UNIVERSITE DE STRASBOURG, priority 2019, dated 2026).
